Results reported in US20060069132A1, “Azolecarboxamide herbicides” (priority 2004, published 2006).

What was measured:
yellow nutsedge = assay: Test C pre-/postemergence herbicide test; assay type: in vivo, Cyperus esculentus; conditions: for Nutsedge, Yellow plant response rating: 500 g ai/ha
Outline: (§1)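 Preemergence: seeds planted and treated with compound in non-phytotoxic solvent with surfactant; postemergence: plants at 2 to 18 cm (1- to 4-leaf stage) sprayed likewise. Kept in greenhouse 12 to 14 days, then visually rated against controls, 0 (no effect) to 100 (complete control).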

Surinam grass = assay: Test C pre-/postemergence herbicide test; assay type: in vivo, Urochloa decumbens; conditions: for Surinam Grass plant response rating: 500 g ai/ha
Outline: as §1

corn = assay: Test C pre-/postemergence herbicide test; assay type: in vivo, Zea mays; conditions: for Corn plant response rating: 500 g ai/ha
Outline: as §1

rice = assay: Test C flooded paddy test; assay type: in vivo, Oryza sativa; conditions: for Plant response rating, Rice: visual rating after 12 to 14 days
Outline: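 Plants were grown to the 1- to 4-leaf stage (2–18 cm) and then treated postemergence, or grown to the 2-leaf stage for the flooded paddy test. They were held in a greenhouse for 12 to 14 days and then scored by eye against controls, where 0 is no effect and 100 is complete control.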

velvetleaf = assay: Test A pre-/postemergence herbicide test; assay type: in vivo, Abutilon theophrasti; conditions: for Velvetleaf plant response rating: Preemergence
Outline: (§2)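 Sandy loam soil given preemergence directed spray; plants at 2 to 10 cm, one- to two-leaf stage, sprayed to runoff postemergence, compounds in non-phytotoxic solvent with surfactant. Injury rated visually versus untreated controls after about ten greenhouse days, 0 (no effect) to 100 (complete control); dash means not tested.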

giant foxtail = assay: Test C pre-/postemergence herbicide test; assay type: in vivo, Setaria faberi; conditions: for Foxtail, Giant plant response rating: 500 g ai/ha
Outline: as §1

woolly cupgrass = assay: Test C pre-/postemergence herbicide test; assay type: in vivo, Eriochloa villosa; conditions: for Cupgrass, Woolly plant response rating: 500 g ai/ha
Outline: as §1

lambsquarters = assay: Test C pre-/postemergence herbicide test; assay type: in vivo, Chenopodium album; conditions: for Lambsquarters plant response rating: 500 g ai/ha
Outline: as §1

ducksalad = assay: Test C flooded paddy test; assay type: in vivo, Heteranthera limosa; conditions: for Plant response rating, Ducksalad: visual rating after 12 to 14 days
morningglory [1] = assay: Test C pre-/postemergence herbicide test; assay type: in vivo, Ipomoea coccinea; set-up: key to Plant response rating, Morningglory: 0 = no effect, 100 = complete control; conditions: for Morningglory plant response rating: 500 g ai/ha
Outline: as §1

[2] = test system: smallflower umbrella sedge; assay: Test C flooded paddy test; assay type: in vivo, Cyperus difformis; conditions: for Plant response rating, Sedge, Umbrella: visual rating after 12 to 14 days
[3] = test system: common (oilseed) sunflower; assay: Test C pre-/postemergence herbicide test; assay type: in vivo, Helianthus annuus; conditions: for Plant response rating, Sunflower: visual, 12 to 14 days
Outline: as §1

morningglory [4] = assay: Test A pre-/postemergence herbicide test; assay type: in vivo, Ipomoea spp.; conditions: for Plant response rating, Morningglory: Postemergence; for Morningglory plant response rating: Preemergence
Outline: as §2

[5] = 125 g ai/ha, scale 0 (no effect) to 100 (complete control), visual, 12 to 14 days, preemergence
[6] = 250 g ai/ha, scale 0 to 100 (0 no effect, 100 complete control), visual, 12 to 14 days, preemergence
[7] = Postemergence, 250 g ai/ha, scale 0 to 100, 0 no effect, 100 complete control
[8] = Preemergence, scale 0 to 100, 0 no effect, 100 complete control
[9] = postemergence, 62 g ai/ha, scale 0 to 100
[10] = Postemergence, 125 g ai/ha, scale 0 to 100, 0 no effect, 100 complete control
[11] = 62 g ai/ha, scale 0 to 100 (0 no effect, 100 complete control)
[12] = 125 g ai/ha, scale of 0 to 100, 0 is no effect, 100 is complete control
[13] = 250 g ai/ha, scale 0 to 100 (0 no effect, 100 complete control)
[14] = 500 g ai/ha, scale 0 to 100 (0 no effect, 100 complete control)
[15] = 500 g ai/ha, visual rating, 0 to 100 scale (0 no effect, 100 complete control)
[16] = 2000 g ai/ha, 0 to 100 scale, 0 no effect, 100 complete control

C#CCNC(=O)c1cccc(NC(=O)c2cc(C(C)(C)C)nn2CC)c1 [Compound 47]
Plant response rating (0 = no effect, 100 = complete control), Nutsedge, Yellow (yellow nutsedge; 62 g ai/ha, preemergence): 0 | Plant response rating, Nutsedge, Yellow (yellow nutsedge; [5]): 0 | Plant response rating, Nutsedge, Yellow (yellow nutsedge; [6]): 0 | Nutsedge, Yellow plant response rating (yellow nutsedge; Postemergence, scale 0 to 100): 30 | Plant response rating, Nutsedge, Yellow (yellow nutsedge; [7]): 30 | Nutsedge, Yellow plant response rating (yellow nutsedge; [8]): 0 | Plant response rating, Nutsedge, Yellow (yellow nutsedge; [9]): 20 | Plant response rating (0 = no effect, 100 = complete control), Surinam Grass (Surinam grass; 62 g ai/ha, preemergence): 0 | Plant response rating, Surinam Grass (Surinam grass; [5]): 10 | Plant response rating, Surinam Grass (Surinam grass; [6]): 60 | Surinam Grass plant response rating (Surinam grass; Postemergence, scale 0 to 100): 70 | Plant response rating, Surinam Grass (Surinam grass; [7]): 60 | Surinam Grass plant response rating (Surinam grass; [8]): 80 | Plant response rating, Surinam Grass (Surinam grass; [9]): 30 | Plant response rating (0 = no effect, 100 = complete control), Corn (corn; 62 g ai/ha, preemergence): 0 | Plant response rating, Corn (corn; [5]): 0 | Plant response rating, Corn (corn; [6]): 0 | Corn plant response rating (corn; Postemergence, scale 0 to 100): 80 | Plant response rating, Corn (corn; [10]): 70 | Plant response rating, Corn (corn; [7]): 80 | Corn plant response rating (corn; [8]): 10 | Plant response rating, Corn (corn; [9]): 70 | Rice plant response rating (rice; [11]): 0 | Rice plant response rating (rice; [12]): 20 | Plant response rating, Rice (rice; [13]): 20 | Plant response rating, Rice (rice; [14]): 50 | Plant response rating, Velvetleaf (velvetleaf; Postemergence, 2000 g ai/ha, 0 to 100 scale, 0 no effect, 100 complete control): 40 | Velvetleaf plant response rating (velvetleaf; [15]): 20 | Velvetleaf plant response rating (velvetleaf; [16]): 95 | Plant response rating (0 = no effect, 100 = complete control), Foxtail, Giant (giant foxtail; 62 g ai/ha, preemergence): 40 | Plant response rating, Foxtail, Giant (giant foxtail; [5]): 70 | Plant response rating, Foxtail, Giant (giant foxtail; [6]): 80 | Foxtail, Giant plant response rating (giant foxtail; Postemergence, scale 0 to 100): 70 | Plant response rating, Foxtail, Giant (giant foxtail; [10]): 60 | Plant response rating, Foxtail, Giant (giant foxtail; [7]): 60 | Foxtail, Giant plant response rating (giant foxtail; [8]): 90 | Plant response rating, Foxtail, Giant (giant foxtail; [9]): 60 | Plant response rating (0 = no effect, 100 = complete control), Cupgrass, Woolly (woolly cupgrass; 62 g ai/ha, preemergence): 10 | Plant response rating, Cupgrass, Woolly (woolly cupgrass; [5]): 10 | Plant response rating, Cupgrass, Woolly (woolly cupgrass; [6]): 60 | Cupgrass, Woolly plant response rating (woolly cupgrass; Postemergence, scale 0 to 100): 80 | Plant response rating, Cupgrass, Woolly (woolly cupgrass; [10]): 60 | Plant response rating, Cupgrass, Woolly (woolly cupgrass; [7]): 70 | Cupgrass, Woolly plant response rating (woolly cupgrass; [8]): 80 | Plant response rating, Cupgrass, Woolly (woolly cupgrass; [9]): 60 | Plant response rating (0 = no effect, 100 = complete control), Lambsquarters (lambsquarters; 62 g ai/ha, preemergence): 100 | Plant response rating, Lambsquarters (lambsquarters; [5]): 100 | Plant response rating, Lambsquarters (lambsquarters; [6]): 100 | Lambsquarters plant response rating (lambsquarters; Postemergence, scale 0 to 100): 100 | Plant response rating, Lambsquarters (lambsquarters; [7]): 100 | Lambsquarters plant response rating (lambsquarters; [8]): 100 | Plant response rating, Lambsquarters (lambsquarters; [9]): 90 | Ducksalad plant response rating (ducksalad; [11]): 0 | Ducksalad plant response rating (ducksalad; [12]): 70 | Plant response rating, Ducksalad (ducksalad; [13]): 80 | Plant response rating, Ducksalad (ducksalad; [14]): 80 | Plant response rating (0 = no effect, 100 = complete control), Morningglory (morningglory [1]; 62 g ai/ha, preemergence): 0 | Plant response rating, Morningglory (morningglory [1]; [5]): 0 | Plant response rating, Morningglory (morningglory [1]; [6]): 90 | Morningglory plant response rating (morningglory [1]; Postemergence, scale 0 to 100): 90 | Plant response rating, Morningglory (morningglory [1]; [7]): 70 | Morningglory plant response rating (morningglory [1]; [8]): 90 | Plant response rating, Morningglory (morningglory [1]; [9]): 50 | Sedge, Umbrella plant response rating [2, 11]: 30 | Sedge, Umbrella plant response rating [2, 12]: 70 | Plant response rating, Sedge, Umbrella [2, 13]: 80 | Plant response rating, Sedge, Umbrella [2, 14]: 80 | Plant response rating (0 = no effect, 100 = complete control), Sunflower ([3]; 62 g ai/ha, preemergence): 0 | Plant response rating, Sunflower ([3]; 125 g ai/ha, scale 0 (no effect) to 100 (complete control), preemergence): 0 | Plant response rating, Sunflower ([3]; 250 g ai/ha, scale 0 to 100 (0 no effect, 100 complete control), preemergence): 10 | Sunflower plant response rating ([3]; Preemergence, 500 g ai/ha, scale 0 to 100, 0 no effect, 100 complete control): 40 | Plant response rating, Morningglory (morningglory [4]; 500 g ai/ha, 0 to 100 scale, 0 no effect, 100 complete control): 20 | Plant response rating, Morningglory (morningglory [4]; [16]): 25 | Morningglory plant response rating (morningglory [4]; [15]): 20 | Morningglory plant response rating (morningglory [4]; [16]): 30
